From US20070049593A1 (priority 2004, published 2007)
Where a name gives a salt, the structure may show the parent alone.

Target: T1, HCV polymerase (Hepatitis C virus genotype 1b, UniProt P26663)
T1 construct: a region encoding NS5B (J Virol 1991 March, 65(3), 1105-13, 544 amino acids after deletion of 47 amino acids on the C-terminal); 6xHis (C); made in house; host or cells: Escherichia coli
Test: biochemical
Parameters: species or system HCV BK strain
Settings: not given
How it was run: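 His-tagged NS5B (BK strain, 47-aa C-terminal deletion, E. coli-expressed) at 0.5 μg/ml copied 5 μg/ml run-off RNA bearing the HCV 3′ UTR with 2 μM UTP plus [3H]UTP, 50 μM ATP/GTP, in pH 7.5 Tris with 5 mM MgCl2, 25 °C, 90 min. TCA-precipitated RNA was counted and IC50 calculated.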

T1 sequence (P26663 2420-2963): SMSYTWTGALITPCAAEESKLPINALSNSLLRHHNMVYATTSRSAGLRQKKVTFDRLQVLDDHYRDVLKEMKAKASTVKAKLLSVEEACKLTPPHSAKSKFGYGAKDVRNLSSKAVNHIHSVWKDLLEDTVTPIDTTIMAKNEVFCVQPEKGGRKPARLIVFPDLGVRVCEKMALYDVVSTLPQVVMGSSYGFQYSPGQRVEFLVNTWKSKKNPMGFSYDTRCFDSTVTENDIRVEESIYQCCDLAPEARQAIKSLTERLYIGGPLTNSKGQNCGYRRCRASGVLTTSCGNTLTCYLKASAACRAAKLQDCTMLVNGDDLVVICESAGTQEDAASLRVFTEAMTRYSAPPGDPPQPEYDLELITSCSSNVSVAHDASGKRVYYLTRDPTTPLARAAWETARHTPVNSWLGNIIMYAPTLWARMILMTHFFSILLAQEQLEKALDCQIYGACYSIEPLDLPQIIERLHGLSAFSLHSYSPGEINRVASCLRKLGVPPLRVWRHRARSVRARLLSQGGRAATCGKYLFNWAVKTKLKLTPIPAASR

Compound | IC50 [nM]
Cc1ccc2c(c1)N(CCN1CCC(CO)CC1)CCn1c-2c(C2CCCCC2)c2ccc(C(=O)O)cc21 [Example 1-443, 13-cyclohexyl-5-[2-(4-hydroxymethylpiperidin-1-yl)ethyl]-3-methyl-6,7-dihydro-5H-benzo[5,6][1,4]diazepino[7,1-a]indole-10-carboxylic acid dihydrochloride] | < 100
O=C(O)c1ccc2c(C3CCCCC3)c3n(c2c1)CCN(CCN1CCC[C@@H](CCOc2ccccc2)C1)c1ccccc1-3 [Example 1-444, 13-cyclohexyl-5-{2-[(S)-3-(2-phenoxyethyl)piperidin-1-yl]ethyl}-6,7-dihydro-5H-benzo[5,6][1,4]diazepino[7,1-a]indole-10-carboxylic acid dihydrochloride] | < 100
COCC[C@@H]1CCCN(CCN2CCn3c(c(C4CCCCC4)c4ccc(C(=O)O)cc43)-c3ccc(OC)cc32)C1 [Example 1-445, 13-cyclohexyl-3-methoxy-5-{2-[(S)-3-(2-methoxyethyl)piperidin-1-yl]ethyl}-6,7-dihydro-5H-benzo[5,6][1,4]diazepino[7,1-a]indole-10-carboxylic acid dihydrochloride] | < 100
CSc1ccc2c(c1)N(C)CCn1c-2c(C2CCCCC2)c2ccc(C(=O)NC3(C(=O)Nc4ccc(/C=C/C(=O)O)cc4)CCC3)cc21 [Example 1-450, (E)-3-[4-({1-[(13-cyclohexyl-5-methyl-3-methylsulfanyl-6,7-dihydro-5H-benzo[5,6][1,4]diazepino[7,1-a]indole-10-carbonyl)amino]cyclobutanecarbonyl}amino)phenyl]acrylic acid] | < 100
Cc1ccc2c(c1)N(CCN1CCCCC1)CCn1c-2c(C2CCCCC2)c2ccc(C(=O)O)c(Cl)c21 [Example 1-451, 9-chloro-13-cyclohexyl-3-methyl-5-[2-(piperidin-1-yl)ethyl]-6,7-dihydro-5H-benzo[5,6][1,4]diazepino[7,1-a]indole-10-carboxylic acid dihydrochloride] | < 100
Cc1ccc2c(c1)N(C)CCn1c-2c(C2CCCCC2)c2ccc(C(=O)O)c(Cl)c21 [Example 1-452, 9-chloro-13-cyclohexyl-3,5-dimethyl-6,7-dihydro-5H-benzo[5,6][1,4]diazepino[7,1-a]indole-10-carboxylic acid] | < 100
CCN1CCn2c(c(C3CCCCC3)c3ccc(C(=O)O)cc32)-c2ccc(OC)cc21 [Example 1-474, 13-cyclohexyl-5-ethyl-3-methoxy-6,7-dihydro-5H-benzo[5,6][1,4]diazepino[7,1-a]indole-10-carboxylic acid] | < 100
COc1ccc2c(c1)N(C(C)C)CCn1c-2c(C2CCCCC2)c2ccc(C(=O)O)cc21 [Example 1-475, 13-cyclohexyl-5-isopropyl-3-methoxy-6,7-dihydro-5H-benzo[5,6][1,4]diazepino[7,1-a]indole-10-carboxylic acid monohydrochloride] | < 100
Cc1ccc2c(c1)N(CC(=O)N1CCCOCC1)CCn1c-2c(C2CCCCC2)c2ccc(C(=O)O)cc21 [Example 1-476, sodium salt of 13-cyclohexyl-3-methyl-5-[2-(1,4-oxazepan-4-yl)-2-oxoethyl]-6,7-dihydro-5H-benzo[5,6][1,4]diazepino[7,1-a]indole-10-carboxylic acid] | < 100
CCN1CCn2c(c(C3CCCCC3)c3ccc(C(=O)NC4(C(=O)Nc5ccc(/C=C/C(=O)O)cc5)CCC4)cc32)-c2ccc(OC)cc21 [Example 1-477, (E)-3-[4-({1-[(13-cyclohexyl-5-ethyl-3-methoxy-6,7-dihydro-5H-benzo[5,6][1,4]diazepino[7,1-a]indole-10-carbonyl)amino]cyclobutanecarbonyl}amino)phenyl]acrylic acid] | < 100
COc1ccc2c(c1)N(C(C)C)CCn1c-2c(C2CCCCC2)c2ccc(C(=O)NC3(C(=O)Nc4ccc(/C=C/C(=O)O)cc4)CCC3)cc21 [Example 1-478, (E)-3-[4-({1-[(13-cyclohexyl-5-isopropyl-3-methoxy-6,7-dihydro-5H-benzo[5,6][1,4]diazepino[7,1-a]indole-10-carbonyl)amino]cyclobutanecarbonyl}amino)phenyl]acrylic acid] | < 100
COCCN1CCn2c(c(C3CCCCC3)c3ccc(C(=O)O)cc32)-c2ccc(OC)cc21 [Example 1-479, 13-cyclohexyl-3-methoxy-5-(2-methoxyethyl)-6,7-dihydro-5H-benzo[5,6][1,4]diazepino[7,1-a]indole-10-carboxylic acid] | < 100
COc1ccc2c(c1)N(CCOC(C)C)CCn1c-2c(C2CCCCC2)c2ccc(C(=O)O)cc21 [Example 1-480, 13-cyclohexyl-5-(2-isopropoxyethyl)-3-methoxy-6,7-dihydro-5H-benzo[5,6][1,4]diazepino[7,1-a]indole-10-carboxylic acid] | < 100
COCCN1CCn2c(c(C3CCCCC3)c3ccc(C(=O)NC4(C(=O)Nc5ccc(/C=C/C(=O)O)cc5)CCC4)cc32)-c2ccc(OC)cc21 [Example 1-481, (E)-3-{4-[(1-{[13-cyclohexyl-3-methoxy-5-(2-methoxyethyl)-6,7-dihydro-5H-benzo[5,6][1,4]diazepino[7,1-a]indole-10-carbonyl]amino}cyclobutanecarbonyl)amino]phenyl}acrylic acid] | < 100
COc1ccc2c(c1)N(CCOC(C)C)CCn1c-2c(C2CCCCC2)c2ccc(C(=O)NC3(C(=O)Nc4ccc(/C=C/C(=O)O)cc4)CCC3)cc21 [Example 1-482, (E)-3-{4-[(1-{[13-cyclohexyl-5-(2-isopropoxyethyl)-3-methoxy-6,7-dihydro-5H-benzo[5,6][1,4]diazepino[7,1-a]indole-10-carbonyl]amino}cyclobutanecarbonyl)amino]phenyl}acrylic acid] | < 100
COc1ccc2c(c1)N(CC(C)C)CCn1c-2c(C2CCCCC2)c2ccc(C(=O)O)cc21 [Example 1-483, 13-cyclohexyl-5-isobutyl-3-methoxy-6,7-dihydro-5H-benzo[5,6][1,4]diazepino[7,1-a]indole-10-carboxylic acid] | < 100
COc1ccc2c(c1)N(CC(C)C)CCn1c-2c(C2CCCCC2)c2ccc(C(=O)NC3(C(=O)Nc4ccc(/C=C/C(=O)O)cc4)CCC3)cc21 [Example 1-484, (E)-3-[4-({1-[(13-cyclohexyl-5-isobutyl-3-methoxy-6,7-dihydro-5H-benzo[5,6][1,4]diazepino[7,1-a]indole-10-carbonyl)amino]cyclobutanecarbonyl}amino)phenyl]acrylic acid] | < 100
O=C(O)c1ccc2c(C3CCCCC3)c3n(c2c1)CCN(CCN1CCC[C@H](COc2ccccc2)C1)c1ccccc1-3 [Example 1-485, 13-cyclohexyl-5-[2-((S)-3-phenoxymethylpiperidin-1-yl)ethyl]-6,7-dihydro-5H-benzo[5,6][1,4]diazepino[7,1-a]indole-10-carboxylic acid dihydrochloride] | < 100
O=C(O)c1ccc2c(C3CCCCCC3)c3n(c2c1)CCN(CCN1CCCCC1)c1cc(Cl)ccc1-3 [Example 1-486, 3-chloro-13-cycloheptyl-5-[2-(piperidin-1-yl)ethyl]-6,7-dihydro-5H-benzo[5,6][1,4]diazepino[7,1-a]indole-10-carboxylic acid] | < 100
Cc1ccc2c(c1)N(CCC13CCC(CC1)N3Cc1ccccc1)CCn1c-2c(C2CCCCC2)c2ccc(C(=O)O)cc21 [Example 1-487, 5-[2-(7-benzyl-7-azabicyclo[2.2.1]hept-1-yl)ethyl]-13-cyclohexyl-3-methyl-6,7-dihydro-5H-benzo[5,6][1,4]diazepino[7,1-a]indole-10-carboxylic acid] | < 100
Cc1ccc2c(c1)N(CCC13CCC(CC1)N3)CCn1c-2c(C2CCCCC2)c2ccc(C(=O)O)cc21 [Example 1-488, 5-[2-(7-azabicyclo[2.2.1]hept-1-yl)ethyl]-13-cyclohexyl-3-methyl-6,7-dihydro-5H-benzo[5,6][1,4]diazepino[7,1-a]indole-10-carboxylic acid monohydrochloride] | < 100
Cc1ccc2c(c1)N(CCC13CCC(CC1)N3CC(=O)O)CCn1c-2c(C2CCCCC2)c2ccc(C(=O)O)cc21 [Example 1-489, 5-[2-(7-carboxymethyl-7-azabicyclo[2.2.1]hept-1-yl)ethyl]-13-cyclohexyl-3-methyl-6,7-dihydro-5H-benzo[5,6][1,4]diazepino[7,1-a]indole-10-carboxylic acid] | < 100
N#Cc1ccc2c(c1)N(CCN1CCCCC1)CCn1c-2c(C2CCCCC2)c2ccc(C(=O)O)cc21 [Example 1-490, 3-cyano-13-cyclohexyl-5-[2-(piperidin-1-yl)ethyl]-6,7-dihydro-5H-benzo[5,6][1,4]diazepino[7,1-a]indole-10-carboxylic acid monohydrochloride] | < 100
NC(=O)c1ccc2c(c1)N(CCN1CCCCC1)CCn1c-2c(C2CCCCC2)c2ccc(C(=O)O)cc21 [Example 1-491, 3-carbamoyl-13-cyclohexyl-5-[2-(piperidin-1-yl)ethyl]-6,7-dihydro-5H-benzo[5,6][1,4]diazepino[7,1-a]indole-10-carboxylic acid monohydrochloride] | < 100
Cc1ccc2c(c1)N(CCC1CCCCC1)CCn1c-2c(C2CCCCC2)c2ccc(C(=O)O)cc21 [Example 1-492, 13-cyclohexyl-5-(2-cyclohexylethyl)-3-methyl-6,7-dihydro-5H-benzo[5,6][1,4]diazepino[7,1-a]indole-10-carboxylic acid] | < 100

Same assay, conditions: 25° C., 90 min; [5,6-3H]UTP incorporation into RNA; read-out: HCV polymerase inhibitory activity IC50

Compound | IC50 [nM]
COC(=O)C(Cc1ccc(O)cc1)NC(=O)c1ccc2c(C3CCCCC3)c3n(c2c1)CCN(C)c1cc(C)ccc1-3 [Example 1-473, methyl (S)-2-[(13-cyclohexyl-3,5-dimethyl-6,7-dihydro-5H-benzo[5,6][1,4]diazepino[7,1-a]indole-10-carbonyl)amino]-3-(4-hydroxyphenyl)propionate] | < 100
